± gives the expanded uncertainty stated by the source.
Experiment: activity coefficient (dimensionless); of the first substance listed, at infinite dilution; xn = mol fraction of the nth substance listed
Conditions: 101.33 kPa, Liquid, Chromatography, x1 = 0

**Q.** For `CCC(C)(C)OC` [2-methoxy-2-methylbutane] + O, which activity coefficient (303.25 K) is on record?
**A.** 643 ± 39

**Q.** And the activity coefficient (313.25 K)?
**A.** 796 ± 48

**Q.** And the activity coefficient (323.25 K)?
**A.** 942 ± 57

**Q.** And the activity coefficient (333.25 K)?
**A.** 1080 ± 65

**Q.** For `COC(C)(C)C` [2-methoxy-2-methylpropane] + O, which activity coefficient (303.25 K) is on record?
**A.** 153 ± 9

**Q.** And the activity coefficient (313.25 K)?
**A.** 195 ± 12

**Q.** And the activity coefficient (323.25 K)?
**A.** 235 ± 14

**Q.** What about the activity coefficient (333.25 K) of the same compound?
**A.** 278 ± 17

**Q.** What does the source list for `CC(C)=O` [acetone] + O?
**A.** activity coefficient (303.25 K): 8.02 ± 0.48; activity coefficient (313.25 K): 9.2 ± 0.6; activity coefficient (323.25 K): 9.81 ± 0.58; activity coefficient (333.25 K): 10.3 ± 0.6

**Q.** With `c1ccccc1` [benzene] + O as the compound, how does the activity coefficient (308.95 K) read?
**A.** 2470 ± 150

**Q.** What about the activity coefficient (313.25 K) of the same compound?
**A.** 2370 ± 140

**Q.** And the activity coefficient (318.25 K)?
**A.** 2250 ± 140

**Q.** What about the activity coefficient (323.15 K) of the same compound?
**A.** 2140 ± 130

**Q.** Which results are given for `CCC(C)=O` [butanone] + O?
**A.** activity coefficient (303.25 K): 29.5 ± 1.8; activity coefficient (313.25 K): 33.8 ± 2; activity coefficient (323.25 K): 35.9 ± 2.1; activity coefficient (333.25 K): 38.9 ± 2.3

**Q.** With `CCOCC` [diethyl ether] + O as the compound, how does the activity coefficient (303.25 K) read?
**A.** 90.1 ± 5.4

**Q.** What about the activity coefficient (313.25 K) of the same compound?
**A.** 113 ± 7

**Q.** What about the activity coefficient (323.25 K) of the same compound?
**A.** 135 ± 8

**Q.** And the activity coefficient (333.25 K)?
**A.** 158 ± 10

**Q.** Which results are given for `CC(C)OC(C)C` [diisopropyl ether] + O?
**A.** activity coefficient (303.25 K): 737 ± 44; activity coefficient (313.25 K): 965 ± 58; activity coefficient (323.25 K): 1140 ± 69; activity coefficient (333.25 K): 1310 ± 79

**Q.** What does the source list for `CCCOCCC` [dipropyl ether] + O?
**A.** activity coefficient (303.25 K): 2520 ± 150; activity coefficient (313.25 K): 2880 ± 180; activity coefficient (323.25 K): 3230 ± 200; activity coefficient (333.25 K): 3230 ± 200

**Q.** With `CCO` [ethanol] + O as the compound, how does the activity coefficient (303.25 K) read?
**A.** 5.03 ± 0.3

**Q.** What about the activity coefficient (313.25 K) of the same compound?
**A.** 5.33 ± 0.32

**Q.** And the activity coefficient (323.25 K)?
**A.** 5.54 ± 0.33

**Q.** What about the activity coefficient (333.25 K) of the same compound?
**A.** 5.76 ± 0.34

**Q.** What about the activity coefficient (343.25 K) of the same compound?
**A.** 5.96 ± 0.35

**Q.** With `CCOC(C)=O` [ethyl acetate] + O as the compound, how does the activity coefficient (303.25 K) read?
**A.** 76.5 ± 4.6

**Q.** What about the activity coefficient (313.25 K) of the same compound?
**A.** 85 ± 5

**Q.** And the activity coefficient (323.25 K)?
**A.** 90.1 ± 5.4

**Q.** What about the activity coefficient (333.25 K) of the same compound?
**A.** 94.7 ± 5.7

**Q.** And the activity coefficient (343.25 K)?
**A.** 96.2 ± 5.8

**Q.** With `CCOC=O` [ethyl methanoate] + O as the compound, how does the activity coefficient (303.25 K) read?
**A.** 53.8 ± 3.2

**Q.** And the activity coefficient (313.25 K)?
**A.** 55.7 ± 3.3

**Q.** What about the activity coefficient (323.25 K) of the same compound?
**A.** 57.1 ± 3.4

**Q.** What about the activity coefficient (333.25 K) of the same compound?
**A.** 57.7 ± 3.5

**Q.** What does the source list for `COC(C)=O` [methyl ethanoate] + O?
**A.** activity coefficient (303.25 K): 26.2 ± 1.6; activity coefficient (313.25 K): 28.4 ± 1.7; activity coefficient (323.25 K): 29.8 ± 1.8; activity coefficient (333.25 K): 31.2 ± 1.9; activity coefficient (343.25 K): 31.6 ± 1.9

**Q.** What does the source list for `COC=O` [methyl methanoate] + O?
**A.** activity coefficient (303.25 K): 18.7 ± 1.1; activity coefficient (313.25 K): 19.1 ± 1.1; activity coefficient (323.25 K): 19.5 ± 1.2; activity coefficient (333.25 K): 19.8 ± 1.2

**Q.** For `CCCC(C)=O` [pentan-2-one] + O, which activity coefficient (303.25 K) is on record?
**A.** 105 ± 6

**Q.** What about the activity coefficient (313.25 K) of the same compound?
**A.** 120 ± 7

**Q.** And the activity coefficient (323.25 K)?
**A.** 128 ± 8

**Q.** What about the activity coefficient (333.25 K) of the same compound?
**A.** 135 ± 8

**Q.** Which results are given for `CCCOC(C)=O` [propyl ethanoate] + O?
**A.** activity coefficient (303.25 K): 297 ± 18; activity coefficient (313.25 K): 325 ± 20; activity coefficient (323.25 K): 341 ± 21; activity coefficient (333.25 K): 351 ± 21; activity coefficient (343.25 K): 348 ± 21

**Q.** What does the source list for `Cc1ccccc1` [toluene] + O?
**A.** activity coefficient (308.95 K): 8570 ± 520; activity coefficient (313.25 K): 8090 ± 490; activity coefficient (318.25 K): 7720 ± 470; activity coefficient (323.15 K): 7110 ± 430
